From ChEMBL document CHEMBL1121396, “10,10-Difluoro-13-dehydroprostacyclin: a chemically and metabolically stabilized potent prostacyclin” (J Med Chem, 1980)

Legend:
[1] = Tested for effect to cause relaxation of […] mesenteric artery previously contracted by PGF2-alpha; assay type: functional
[2] = Tested for effect to cause relaxation of bovine coronary artery; assay type: functional, tissue-based, Bos taurus

Structure (SMILES)	EC50 [1] [nM]	EC50 [2] [nM]
CCCCC[C@H](O)C#CC1C2C/C(=C\CCCC(=O)O)OC2C(F)(F)C1O (some centres undefined)	2.3	8.5
CCCCC[C@H](O)/C=C/[C@@H]1[C@H]2C/C(=C/CCCC(=O)O)O[C@H]2C[C@H]1O [EPOPROSTENOL]	3.3	28
